Experimental data: ChEMBL document CHEMBL4665705 (J Med Chem, 2020)
In brackets after ≈: the same amount, converted by molar mass.

How the values were obtained:
[1] = biological target: Bromodomain-containing protein 2 (Homo sapiens, UniProt P25440, Y386A)
[2] = Volume of distribution at steady state in Beagle dog at 0.5 mg/kg, iv administered as 1 hr infusion on day 1 and day 7 to achieve a target dose of 1 mg/kg by LC-MS/MS analysis; format: ADME, organism-based, Canis lupus familiaris; details: in vivo, dose 0.5-1 mg/kg, time 7 day, read-out: Vdss
[3] = Oral bioavailability in Wistar Han rat at 3 mg/kg by LC-MS/MS analysis; format: ADME, organism-based; details: in vivo
Albumin = Albumin (Homo sapiens, UniProt P02768); assay: Binding affinity to HSA relative to control; format: ADME; details: isolated protein
Albumin, sequence (P02768 whole entry, the tested form may be a part): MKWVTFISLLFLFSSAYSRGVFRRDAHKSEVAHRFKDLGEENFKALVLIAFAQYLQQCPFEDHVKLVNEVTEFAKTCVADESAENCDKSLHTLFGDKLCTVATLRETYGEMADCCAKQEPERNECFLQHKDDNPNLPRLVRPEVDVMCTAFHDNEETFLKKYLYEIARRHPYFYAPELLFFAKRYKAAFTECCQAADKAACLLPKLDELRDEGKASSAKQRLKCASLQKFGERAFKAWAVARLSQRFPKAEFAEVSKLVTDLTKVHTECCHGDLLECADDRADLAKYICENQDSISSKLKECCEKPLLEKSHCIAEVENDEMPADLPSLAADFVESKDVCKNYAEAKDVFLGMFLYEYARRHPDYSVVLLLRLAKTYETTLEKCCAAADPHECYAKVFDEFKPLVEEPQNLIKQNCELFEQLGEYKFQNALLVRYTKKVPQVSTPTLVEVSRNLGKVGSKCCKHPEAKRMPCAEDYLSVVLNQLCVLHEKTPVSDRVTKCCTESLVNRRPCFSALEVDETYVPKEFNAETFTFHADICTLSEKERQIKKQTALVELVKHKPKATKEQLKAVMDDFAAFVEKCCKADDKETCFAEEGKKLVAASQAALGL

[4] = Half life in Beagle dog at 0.5 mg/kg, iv administered as 1 hr infusion on day 1 and day 7 to achieve a target dose of 1 mg/kg by LC-MS/MS analysis; format: ADME, organism-based, Canis lupus familiaris; details: in vivo, dose 0.5-1 mg/kg, time 7 day
[5] = Fraction unbound in Wistar Han rat blood measured after 4 hrs by LC-MS/MS analysis; format: ADME, tissue-based
Blood = assay: Inhibition of LPS-induced MCP1 production in human whole blood preincubated for 30 mins followed by LPS addition measured after 24 hrs by immunoassay; format: functional, tissue-based
[6] = Volume of distribution at steady state in Wistar Han rat at 1 mg/kg, iv administered as 1 hr infusion or 3 mg/kg, po administered via gavage by LC-MS/MS analysis; format: ADME, organism-based; details: in vivo, read-out: Vdss
[7] = biological target: Bromodomain-containing protein 3 (Homo sapiens, UniProt Q15059, Y348A); assay: Displacement of Alexa Fluor 647 labelled ligand from 6His-Thr tagged BRD3 BD1/BD2 Y348A mutant (1 to 435 residues) (unknown origin) measured after 30 mins by TR-FRET assay
Bromodomain-containing protein 3 (Homo sapiens, UniProt Q15059, Y348A), sequence (Q15059 2-726 Y348A limits assumed): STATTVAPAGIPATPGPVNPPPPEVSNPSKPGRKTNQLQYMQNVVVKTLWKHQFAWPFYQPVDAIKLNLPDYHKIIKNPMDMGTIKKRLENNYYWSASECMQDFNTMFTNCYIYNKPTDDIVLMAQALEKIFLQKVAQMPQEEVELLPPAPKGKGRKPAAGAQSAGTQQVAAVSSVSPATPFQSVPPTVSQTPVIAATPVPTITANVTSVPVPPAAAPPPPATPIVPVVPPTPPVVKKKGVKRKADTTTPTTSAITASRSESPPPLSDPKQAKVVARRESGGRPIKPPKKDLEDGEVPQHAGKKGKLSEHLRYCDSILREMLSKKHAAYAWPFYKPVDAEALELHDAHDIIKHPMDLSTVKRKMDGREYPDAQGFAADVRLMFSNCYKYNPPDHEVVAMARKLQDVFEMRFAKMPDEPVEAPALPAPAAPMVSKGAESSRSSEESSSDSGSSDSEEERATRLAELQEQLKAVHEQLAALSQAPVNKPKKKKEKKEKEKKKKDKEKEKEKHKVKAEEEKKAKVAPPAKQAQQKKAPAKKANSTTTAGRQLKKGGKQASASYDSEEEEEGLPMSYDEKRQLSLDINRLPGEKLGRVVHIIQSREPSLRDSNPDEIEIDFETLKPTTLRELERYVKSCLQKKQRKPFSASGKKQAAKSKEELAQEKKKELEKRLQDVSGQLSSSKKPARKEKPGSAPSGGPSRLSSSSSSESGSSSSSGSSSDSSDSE

[8] = Clearance in Beagle dog at 0.5 mg/kg, iv administered as 1 hr infusion on day 1 and day 7 to achieve a target dose of 1 mg/kg by LC-MS/MS analysis; format: ADME, organism-based, Canis lupus familiaris; details: in vivo, dose 0.5-1 mg/kg, time 7 day
[9] = Intrinsic clearance in Wistar Han rat hepatocytes assessed per g tissue at 0.5 uM measured up to 60 mins by LC-MS/MS analysis; format: ADME, cell-based, Hepatocyte; details: 1 h, time <=45 min
[10] = Fraction unbound in Beagle dog blood measured after 4 hrs by LC-MS/MS analysis; format: ADME, tissue-based, Canis lupus familiaris
[11] = biological target: Bromodomain-containing protein 3 (Homo sapiens, UniProt Q15059, Y73A); assay: Displacement of Alexa Fluor 647 labelled ligand from 6His-Thr tagged BRD3 BD2/BD1 Y73A mutant (1 to 435 residues) (unknown origin) measured after 30 mins by TR-FRET assay
Bromodomain-containing protein 3 (Homo sapiens, UniProt Q15059, Y73A), sequence (Q15059 2-726 Y73A limits assumed): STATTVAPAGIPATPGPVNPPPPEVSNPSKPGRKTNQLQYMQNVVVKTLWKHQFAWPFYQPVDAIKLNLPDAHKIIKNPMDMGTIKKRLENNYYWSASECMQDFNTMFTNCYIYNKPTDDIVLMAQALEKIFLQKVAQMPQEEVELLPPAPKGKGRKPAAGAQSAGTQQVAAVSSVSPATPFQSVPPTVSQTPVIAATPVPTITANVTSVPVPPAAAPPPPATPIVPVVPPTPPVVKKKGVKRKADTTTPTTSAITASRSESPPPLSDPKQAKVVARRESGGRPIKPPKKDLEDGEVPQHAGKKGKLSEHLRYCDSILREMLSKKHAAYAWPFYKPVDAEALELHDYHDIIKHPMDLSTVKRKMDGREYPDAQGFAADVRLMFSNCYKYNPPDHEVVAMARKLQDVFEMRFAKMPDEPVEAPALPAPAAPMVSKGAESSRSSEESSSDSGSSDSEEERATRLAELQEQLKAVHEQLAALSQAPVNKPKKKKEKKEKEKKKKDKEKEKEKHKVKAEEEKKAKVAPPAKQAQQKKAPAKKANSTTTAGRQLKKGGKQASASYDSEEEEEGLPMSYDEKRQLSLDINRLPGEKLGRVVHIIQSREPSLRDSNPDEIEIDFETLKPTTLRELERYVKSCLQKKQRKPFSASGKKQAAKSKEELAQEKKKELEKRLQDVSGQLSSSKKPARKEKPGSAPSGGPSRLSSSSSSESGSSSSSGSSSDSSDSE

[12] = Fraction unbound in human blood measured after 4 hrs by LC-MS/MS analysis; format: ADME, tissue-based
[13] = Half life in Wistar Han rat at 1 mg/kg, iv administered as 1 hr infusion or 3 mg/kg, po administered via gavage by LC-MS/MS analysis; format: ADME, organism-based; details: in vivo
[14] = Intrinsic clearance in human hepatocytes assessed per g tissue at 0.5 uM measured up to 60 mins by LC-MS/MS analysis; format: ADME, cell-based, Hepatocyte; details: 1 h, time <=45 min
in vitro = details: PAMPA, pH 7.4
[15] = Solubility of the compound in pH 6.5 FaSSIF at 125 ug/ml measured after 16 hrs by HPLC analysis; format: physicochemical; details: dose 125 µg/ml
physchem = details: phosphate buffered saline, pH 7.4
Cytochrome P450 3A4 = Cytochrome P450 3A4 (Homo sapiens, UniProt P08684); assay: Metabolism-dependent inhibition of CYP3A4 (unknown origin); format: ADME
Cytochrome P450 3A4, sequence (P08684 whole entry): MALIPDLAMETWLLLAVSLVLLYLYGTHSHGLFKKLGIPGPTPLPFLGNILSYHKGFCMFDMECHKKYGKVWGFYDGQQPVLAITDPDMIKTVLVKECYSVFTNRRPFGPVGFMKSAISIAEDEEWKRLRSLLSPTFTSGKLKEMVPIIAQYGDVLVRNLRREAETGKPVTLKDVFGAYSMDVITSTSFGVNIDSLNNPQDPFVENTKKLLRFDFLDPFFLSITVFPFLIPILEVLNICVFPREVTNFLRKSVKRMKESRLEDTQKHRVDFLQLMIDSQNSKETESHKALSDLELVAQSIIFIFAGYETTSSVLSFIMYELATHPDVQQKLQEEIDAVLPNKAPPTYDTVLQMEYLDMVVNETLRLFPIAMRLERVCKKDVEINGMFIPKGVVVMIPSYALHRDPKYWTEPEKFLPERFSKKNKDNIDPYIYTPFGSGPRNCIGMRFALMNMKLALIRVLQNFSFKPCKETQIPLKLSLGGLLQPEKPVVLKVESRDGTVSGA

[16] = Intrinsic clearance in Beagle dog hepatocytes assessed per g tissue at 0.5 uM measured up to 120 mins by LC-MS/MS analysis; format: ADME, cell-based, Canis lupus familiaris, Hepatocyte; details: 2 h
[17] = Oral bioavailability in Beagle dog; format: ADME, organism-based, Canis lupus familiaris; details: in vivo
[18] = Clearance in Wistar Han rat at 1 mg/kg, iv administered as 1 hr infusion or 3 mg/kg, po administered via gavage by LC-MS/MS analysis; format: ADME, organism-based; details: in vivo
[19] = Clearance in Wistar Han rat at 1 mg/kg, iv administered as 1 hr infusion or 3 mg/kg, po administered via gavage by LC-MS/MS analysis relative to liver blood flow; format: ADME, organism-based; details: in vivo
[20] = biological target: Bromodomain-containing protein 2 (Homo sapiens, UniProt P25440, Y113A); assay: Displacement of Alexa Fluor 647 labelled ligand from 6His-Thr tagged BRD2 BD2/BD1 Y113A mutant (1 to 473 residues) (unknown origin) measured after 30 mins by TR-FRET assay
Bromodomain-containing protein 2 (Homo sapiens, UniProt P25440, Y113A), sequence (P25440 whole entry Y113A, the tested form may be a part): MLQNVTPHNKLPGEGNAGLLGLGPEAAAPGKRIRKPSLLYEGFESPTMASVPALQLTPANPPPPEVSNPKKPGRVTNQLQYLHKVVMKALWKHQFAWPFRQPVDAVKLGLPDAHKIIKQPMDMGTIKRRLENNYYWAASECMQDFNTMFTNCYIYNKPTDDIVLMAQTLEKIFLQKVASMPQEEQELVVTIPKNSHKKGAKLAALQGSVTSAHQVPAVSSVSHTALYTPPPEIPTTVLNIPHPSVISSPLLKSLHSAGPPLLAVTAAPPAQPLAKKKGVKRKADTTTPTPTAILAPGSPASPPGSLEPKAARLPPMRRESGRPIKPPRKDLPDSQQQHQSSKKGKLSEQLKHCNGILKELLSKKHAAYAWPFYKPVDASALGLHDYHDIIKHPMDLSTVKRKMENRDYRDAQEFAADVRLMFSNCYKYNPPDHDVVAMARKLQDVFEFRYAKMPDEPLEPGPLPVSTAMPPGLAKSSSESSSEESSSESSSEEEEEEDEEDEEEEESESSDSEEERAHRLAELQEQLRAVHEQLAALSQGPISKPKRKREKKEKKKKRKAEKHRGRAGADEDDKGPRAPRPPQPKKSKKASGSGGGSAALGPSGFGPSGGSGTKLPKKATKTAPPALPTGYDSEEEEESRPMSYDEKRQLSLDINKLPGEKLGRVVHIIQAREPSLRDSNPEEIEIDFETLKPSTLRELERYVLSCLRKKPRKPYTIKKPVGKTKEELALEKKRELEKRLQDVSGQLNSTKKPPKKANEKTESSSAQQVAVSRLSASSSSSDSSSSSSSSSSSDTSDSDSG

[21] = biological target: Bromodomain testis-specific protein (Homo sapiens, UniProt Q58F21, Y66A); assay: Displacement of Alexa Fluor 647 labelled ligand from 6His-Thr tagged BRDT BD2/BD1 Y66A mutant (1 to 397 residues) (unknown origin) measured after 30 mins by TR-FRET assay
[22] = Clearance in Beagle dog at 0.5 mg/kg, iv administered as 1 hr infusion on day 1 and day 7 to achieve a target dose of 1 mg/kg by LC-MS/MS analysis relative to liver blood flow; format: ADME, organism-based, Canis lupus familiaris; details: in vivo, 168 h, dose 0.5-1 mg/kg, time 7 day
[23] = buffer, pH 7.4

Bromodomain-containing protein 2 (Homo sapiens, UniProt P25440, Y386A), sequence (P25440 whole entry Y386A, the tested form may be a part): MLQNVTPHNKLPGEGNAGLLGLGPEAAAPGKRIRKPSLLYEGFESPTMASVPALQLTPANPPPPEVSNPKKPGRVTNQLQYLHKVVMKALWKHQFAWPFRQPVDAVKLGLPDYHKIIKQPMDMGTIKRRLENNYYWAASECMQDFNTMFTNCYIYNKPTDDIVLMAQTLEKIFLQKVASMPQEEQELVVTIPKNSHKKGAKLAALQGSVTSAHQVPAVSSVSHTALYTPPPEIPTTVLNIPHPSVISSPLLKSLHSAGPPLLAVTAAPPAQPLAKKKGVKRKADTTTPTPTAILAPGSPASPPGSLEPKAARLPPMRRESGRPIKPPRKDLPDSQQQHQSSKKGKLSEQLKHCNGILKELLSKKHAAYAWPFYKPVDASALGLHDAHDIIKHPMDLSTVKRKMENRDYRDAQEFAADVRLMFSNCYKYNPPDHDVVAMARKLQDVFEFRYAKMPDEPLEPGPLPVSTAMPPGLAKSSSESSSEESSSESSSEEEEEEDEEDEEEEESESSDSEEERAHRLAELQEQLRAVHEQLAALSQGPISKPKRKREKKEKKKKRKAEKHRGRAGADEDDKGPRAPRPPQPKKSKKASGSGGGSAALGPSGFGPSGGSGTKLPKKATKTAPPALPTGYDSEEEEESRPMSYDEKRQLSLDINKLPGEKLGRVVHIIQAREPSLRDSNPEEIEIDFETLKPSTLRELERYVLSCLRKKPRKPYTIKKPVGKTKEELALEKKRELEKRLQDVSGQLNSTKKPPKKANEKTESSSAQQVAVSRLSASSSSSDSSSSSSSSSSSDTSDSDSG

IC50 [1]: 10000 nM
Vd [2]: 0.91 L/kg
bioavailability [3]: 31%
Activity (Albumin): 47%
half-life [4]: 42 min
fraction unbound at 4 h [5]: 0.44
IC50 (Blood): 31.6 nM
Vd [6]: 0.91 L/kg
IC50 [7]: 39800 nM
clearance [8]: 20 mL/min/kg
CLH [9]: < 0.8 mL/min
fraction unbound at 4 h [10]: 0.33
IC50 [11]: 100 nM
fraction unbound at 4 h [12]: 0.32
half-life [13]: 30 min
CLH [14]: < 0.45 mL/min
Papp (in vitro): 1.6 ×10⁻⁶ cm/s
solubility at 16 h [15]: 996 µg/mL (≈ 2400 µM)
solubility kinetic (physchem): 91 µg/mL (≈ 220 µM)
IC50 (Cytochrome P450 3A4): > 39800 nM
CLH [16]: < 1.26 mL/min
bioavailability [17]: 66%
clearance [18]: 36 mL/min/kg
CL [19]: 46%
IC50 [20]: 251 nM
IC50 [21]: 200 nM
CL [22]: 36%
CHI [23]: 2.8
SMILES: CC(=O)Nc1c(F)cc(C(=O)N[C@H]2CC[C@H](O)CC2)cc1O[C@@H](C)c1ccccc1 [GSK046]
